# Laboratory results from patent publication US9067931B2, “2-heteroaryl carboxamides” (BAYER INTELLECTUAL PROPERTY GMBH, priority 2002, dated 2015).
# Structures can show the parent of a compound that is named as a salt.
# Biological target: α7 nAChR (Rattus norvegicus (Rat), UniProt Q05941)
# Test: Inhibition of [3H]-methyllycaconitine binding to rat brain membranes
# Details: [3H]-methyllycaconitine displacement, rat brain membranes (hippocampus or whole brain); Ki=IC50/(1+L/KD)
# Method: Determination of the Affinity of Test Substaces for α7 nAChR by Inhibition of [^3H]-Methyllycaconitine Binding to Rat Brain Membranes
# The [^3H]-methyllycaconitine binding assay is a modification of the method described by Davies et al. in Neuropharmacol. 1999, 38, 679-690.
# Rat brain tissue (hippocampus or whole brain) is homogenized in homogenization buffer (10% w/v, 0.32 M sucrose, 1 mM EDTA, 0.1 mM phenylmethylsulphonyl fluoride (PMSF), 0.01% (w/v) NaN3, pH 7.4, 4° C.) at 600 rpm in a glass homogenizer. The homogenate is centrifuged (1000×g, 4° C., 10 min) and the supernatant is removed. The pellet is resuspended (20% w/v) and the suspension is centrifuged (1000×g, 4° C., 10 min). The two supernatants are combined and centrifuged (15 000×g, 4° C., 30 min). The pellet obtained in this way is referred to as the P2 fraction.
# The P2 pellet is suspended in binding buffer (50 mM Tris-HCl, 1 mM MgCl2, 120 mM NaCl, 5 mM KCl, 2 mM CaCl2, pH 7.4), and the suspension is centrifuged (15 000×g, 4° C., 30 min), twice.
# The residue is resuspended in binding buffer and incubated in a volume of 250 μl (amount of membrane protein 0.1-0.5 mg) in the presence of 1-5 nM [^3H]-methyllycaconitine 0.1% (w/v) BSA (bovine serum albumin) and various concentrations of the test substance at 21° C. for 2.5 h. […] in the presence of 1 μM α-bungarotoxin or 100 μM nicotine or 10 μM MLA (methyllycaconitine).
# The incubation is stopped by adding 4 ml PBS (20 mM Na2HPO4, 5 mM KH2PO4, 150 mM NaCl, pH 7.4, 4° C.) and filtering through type A/E glass fibre filters (Gelman Sciences) which have previously been placed in 0.3% (v/v) polyethyleneimine (PEI) for 3 h. The filters are washed twice with 4 ml of PBS (4° C.), and the bound radioactivity is determined by scintillation measurement. All the assays are carried out in triplicate. The dissociation constant K1 of the test substance was determined from the IC50 of the compounds (concentration of the test substance at which 50% of the ligand bound to the receptor is displaced), the dissociation constant KD and the concentration L of [^3H]-methyllycaconitine using the equation Ki=IC50/(1+L/KD).
# α7 nAChR, sequence (Q05941 23-502): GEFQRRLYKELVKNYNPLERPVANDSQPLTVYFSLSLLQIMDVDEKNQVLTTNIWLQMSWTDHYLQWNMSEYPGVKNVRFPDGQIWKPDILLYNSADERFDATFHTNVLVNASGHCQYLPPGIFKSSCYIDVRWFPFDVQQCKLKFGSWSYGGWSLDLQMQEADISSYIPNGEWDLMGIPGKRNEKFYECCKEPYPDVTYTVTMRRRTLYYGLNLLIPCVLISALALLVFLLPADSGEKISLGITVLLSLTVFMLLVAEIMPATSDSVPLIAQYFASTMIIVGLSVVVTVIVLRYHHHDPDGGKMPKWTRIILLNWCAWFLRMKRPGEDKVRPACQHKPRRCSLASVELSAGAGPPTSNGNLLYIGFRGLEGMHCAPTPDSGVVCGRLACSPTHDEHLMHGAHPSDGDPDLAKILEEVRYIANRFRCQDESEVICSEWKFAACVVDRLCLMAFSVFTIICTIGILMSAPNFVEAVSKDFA
row,Compound,Ki [nM]
1,"O=C(N[C@H]1CN2CCC1CC2)c1cc2cccc(-c3ccc(N4CCOCC4)cc3)c2s1 [Example 19, N-[(3R)-1-Azabicyclo[2.2.2]oct-3-yl]-7-[4-(4-morpholinyl)phenyl]-1-benzothiophene-2-carboxamide hydrochloride]",20
2,"O=C(N[C@H]1CN2CCC1CC2)c1cc2cccc(-c3ccc(CO)cc3)c2s1 [Example 20, N-[(3R)-1-Azabicyclo[2.2.2]oct-3-yl]-7-[4-(hydroxymethyl)phenyl]-1-benzothiophene-2-carboxamide hydrochloride]",1.6
3,"O=C(O)c1cccc(-c2cccc3cc(C(=O)N[C@H]4CN5CCC4CC5)oc23)c1 [Example 149, 3-(2-{[(3R)-1-Azabicyclo[2.2.2]oct-3-ylamino]carbonyl}-1-benzofuran-7-yl)-benzoic acid hydrochloride]",97
4,"COc1cccc(-c2cccc3cc(C(=O)N[C@H]4CN5CCC4CC5)sc23)c1 [Example 17, N-[(3R)-1-Azabicyclo[2.2.2]oct-3-yl]-7-(3-methoxyphenyl)-1-benzothiophene-2-carboxamide hydrochloride]",17
5,"O=C(N[C@H]1CN2CCC1CC2)c1cc2cccc(-c3ccccc3CO)c2o1 [Example 150, N-[(3R)-1-Azabicyclo[2.2.2]oct-3-yl]-7-[2-(hydroxymethyl)phenyl]-1-benzofuran-2-carboxamide hydrochloride]",35
6,"COc1ccc(OC)c(-c2cccc3cc(C(=O)N[C@H]4CN5CCC4CC5)oc23)c1 [Example 151, N-[(3R)-1-Azabicyclo[2.2.2]oct-3-yl]-7-(2,5-dimethoxyphenyl)-1-benzofuran-2-carboxamide hydrochloride]",88
7,"O=C(N[C@H]1CN2CCC1CC2)c1cc2cccc(-c3ccccc3O)c2o1 [Example 186, N-[(3R)-1-Azabicyclo[2.2.2]oct-3-yl]-7-(2-hydroxyphenyl)-1-benzofuran-2-carboxamide]",120
8,"O=C(O)c1cccc(-c2cccc3cc(C(=O)N[C@H]4CN5CCC4CC5)sc23)c1 [Example 75, 3-(2-{[(3R)-1-Azabicyclo[2.2.2]oct-3-ylamino]carbonyl}-1-benzothien-7-yl)-benzoic acid hydrochloride]",< 0.1
9,"O=C(N[C@H]1CN2CCC1CC2)c1cc2cccc(-c3cccc(NC(=O)C4CC4)c3)c2o1 [Example 116, N-[(3R)-1-Azabicyclo[2.2.2]oct-3-yl]-7-{3-[(cyclopropylcarbonyl)amino]phenyl}-1-benzofuran-2-carboxamide hydrochloride]",17
10,"O=C(N[C@H]1CN2CCC1CC2)c1cc2cccc(-c3ccc(N4CCOCC4=O)cc3)c2o1 [Example 90, N-[(3R)-1-Azabicyclo[2.2.2]oct-3-yl]-7-[4-(3-oxo-4-morpholinyl)phenyl]-1-benzofuran-2-carboxamide hydrochloride]",14
11,"CNC(=O)NCc1ccccc1-c1cccc2cc(C(=O)N[C@H]3CN4CCC3CC4)oc12 [Example 175, N-[(3R)-1-Azabicyclo[2.2.2]oct-3-yl]-7-[2-({[(methylamino)carbonyl]amino}-methyl)phenyl]-1-benzofuran-2-carboxamide hydrochloride]",8.3
12,"O=C(N[C@H]1CN2CCC1CC2)c1cc2ccc(-c3ccc(CO)cc3)cc2o1 [Example 3, N-[(3R)-1-Azabicyclo[2.2.2]oct-3-yl]-6-[4-(hydroxymethyl)phenyl]-1-benzofuran-2-carboxamide]",60
13,"NCc1ccccc1-c1cccc2cc(C(=O)N[C@H]3CN4CCC3CC4)sc12 [Example 73, 7-[2-(Aminomethyl)phenyl]-N-[(3R)-1-azabicyclo[2.2.2]oct-3-yl]-1-benzothiophene-2-carboxamide dihydrochloride]",< 1
14,"CCNC(=O)Nc1cccc(-c2cccc3cc(C(=O)N[C@H]4CN5CCC4CC5)oc23)c1 [Example 108, N-[(3R)-1-Azabicyclo[2.2.2]oct-3-yl]-7-(3-{[(ethylamino)carbonyl]amino}phenyl)-1-benzofuran-2-carboxamide hydrochloride]",17
15,"COc1ccccc1-c1cccc2cc(C(=O)N[C@H]3CN4CCC3CC4)oc12 [Example 130, N-[(3R)-1-Azabicyclo[2.2.2]oct-3-yl]-7-[2-(methoxy)phenyl]-1-benzofuran-2-carboxamide]",26
16,"O=C(N[C@H]1CN2CCC1CC2)c1cc2ccc(-c3ccc(N4CCOCC4)cc3)cc2o1 [Example 4, N-[(3R)-1-Azabicyclo[2.2.2]oct-3-yl]-6-[4-(4-morpholinyl)phenyl]-1-benzofuran-2-carboxamide]",24

# Same assay, conditions: [3H]-methyllycaconitine displacement, rat brain membranes (hippocampus or whole brain); Ki=IC50/(1+L/KD); hydrochloride
row,Compound,Ki [nM]
1,"COc1ccccc1-c1cccc2cc(C(=O)N[C@H]3CN4CCC3CC4)oc12 [Example 102, N-[(3R)-1-Azabicyclo[2.2.2]oct-3-yl]-7-[2-(methoxy)phenyl]-1-benzofuran-2-carboxamide hydrochloride]",62
